According to PubChem BioAssay AID1259407 (Chemical Carcinogenesis Research Information System (CCRIS), 2018):
Activity calls are given as the source filed them. The rule behind the calls is not given here.

Test system: CCRIS mutagenicity, Ames/micronucleus/aberration tests
Assay: CCRIS mutagenicity studies
[1] = Test System: AMES SALMONELLA TYPHIMURIUM, Strain/Indicator: TA97, Metabolic Activation: NONE, Method: PREINCUBATION
[2] = Test System: AMES SALMONELLA TYPHIMURIUM, Strain/Indicator: TA98, Metabolic Activation: HAMSTER, LIVER, S-9, AROCLOR 1254 (10%), Method: PREINCUBATION
[3] = Test System: AMES SALMONELLA TYPHIMURIUM, Strain/Indicator: TA98, Metabolic Activation: NONE, Method: PREINCUBATION
[4] = Test System: AMES SALMONELLA TYPHIMURIUM, Strain/Indicator: TA98, Metabolic Activation: NONE, Method: STANDARD PLATE
[5] = Test System: AMES SALMONELLA TYPHIMURIUM, Strain/Indicator: TA98, Metabolic Activation: RAT, LIVER, S-9, AROCLOR 1254 (10%), Method: PREINCUBATION
[6] = Test System: AMES SALMONELLA TYPHIMURIUM, Strain/Indicator: TA100, Metabolic Activation: HAMSTER, LIVER, S-9, AROCLOR 1254 (10%), Method: PREINCUBATION
[7] = Test System: AMES SALMONELLA TYPHIMURIUM, Strain/Indicator: TA100, Metabolic Activation: NONE, Method: PREINCUBATION
[8] = Test System: AMES SALMONELLA TYPHIMURIUM, Strain/Indicator: TA100, Metabolic Activation: RAT, LIVER, S-9, AROCLOR 1254 (10%), Method: PREINCUBATION
[9] = Test System: AMES SALMONELLA TYPHIMURIUM, Strain/Indicator: TA100, Metabolic Activation: RAT, LIVER, S-9, AROCLOR 1254, Method: PREINCUBATION
[10] = Test System: AMES SALMONELLA TYPHIMURIUM, Strain/Indicator: TA98, Metabolic Activation: RAT, LIVER, S-9, AROCLOR 1254, Method: STANDARD PLATE
[11] = Test System: AMES SALMONELLA TYPHIMURIUM, Strain/Indicator: TA100, Metabolic Activation: NONE, Method: STANDARD PLATE
[12] = Test System: AMES SALMONELLA TYPHIMURIUM, Strain/Indicator: TA100, Metabolic Activation: RAT, LIVER, S-9, AROCLOR 1254, Method: STANDARD PLATE
[13] = Test System: AMES SALMONELLA TYPHIMURIUM, Strain/Indicator: TA1535, Metabolic Activation: NONE, Method: STANDARD PLATE
[14] = Test System: AMES SALMONELLA TYPHIMURIUM, Strain/Indicator: TA102, Metabolic Activation: NONE, Method: STANDARD PLATE
[15] = Test System: AMES SALMONELLA TYPHIMURIUM, Strain/Indicator: TA102, Metabolic Activation: RAT, LIVER, S-9, AROCLOR 1254, Method: STANDARD PLATE

Compound | mutagenic call [1] | mutagenic call [2] | mutagenic call [3] | mutagenic call [4] | mutagenic call [5] | mutagenic call [6] | mutagenic call [7] | mutagenic call [8] | mutagenic call [9] | mutagenic call [10] | mutagenic call [11] | mutagenic call [12] | mutagenic call [13] | mutagenic call [14] | mutagenic call [15] | other results
CN(C)c1ccc(N=NS(=O)(=O)O)cc1 | active; positive | active; positive | active; positive | active; positive | active; positive | active; positive | active; positive | active; positive | – | – | – | – | – | – | – | mutagenic call (Test System: AMES SALMONELLA TYPHIMURIUM, Strain/Indicator: TA97, Metabolic Activation: HAMSTER, LIVER, S-9, AROCLOR 1254 (10%), Method: PREINCUBATION): active; positive; mutagenic call (Test System: AMES SALMONELLA TYPHIMURIUM, Strain/Indicator: TA97, Metabolic Activation: RAT, LIVER, S-9, AROCLOR 1254 (10%), Method: PREINCUBATION): active; positive; mutagenic call (Test System: AMES SALMONELLA TYPHIMURIUM, Strain/Indicator: TA98, Metabolic Activation: S-9 MIX, Method: STANDARD PLATE): active; positive; mutagenic call (Test System: AMES SALMONELLA TYPHIMURIUM, Strain/Indicator: TA1535, Metabolic Activation: HAMSTER, LIVER, S-9, AROCLOR 1254 (10%), Method: PREINCUBATION): active; positive; mutagenic call (Test System: AMES SALMONELLA TYPHIMURIUM, Strain/Indicator: TA1535, Metabolic Activation: NONE, Method: PREINCUBATION): inactive; negative; mutagenic call (Test System: AMES SALMONELLA TYPHIMURIUM, Strain/Indicator: TA1535, Metabolic Activation: RAT, LIVER, S-9, AROCLOR 1254 (10%), Method: PREINCUBATION): inactive; negative; mutagenic call (Test System: E. COLI, Strain/Indicator: WP2, Metabolic Activation: NONE, Method: STANDARD PLATE): active; positive; mutagenic call (Test System: E. COLI, Strain/Indicator: WP2 UVRA, Metabolic Activation: NONE, Method: STANDARD PLATE): active; positive
CC(=O)OCc1ccccc1[N+](=O)[O-] | – | – | inactive; negative | – | – | – | inactive; negative | – | inactive; negative | – | – | – | – | – | – | –
COc1cc(C(C)=O)cc(OC)c1O | inactive; negative | – | inactive; negative | – | – | – | inactive; negative | – | inactive; negative | – | – | – | – | – | – | mutagenic call (Test System: AMES SALMONELLA TYPHIMURIUM, Strain/Indicator: TA97, Metabolic Activation: RAT, LIVER, S-9, AROCLOR 1254, Method: PREINCUBATION): inactive; negative; mutagenic call (Test System: AMES SALMONELLA TYPHIMURIUM, Strain/Indicator: TA98, Metabolic Activation: RAT, LIVER, S-9, AROCLOR 1254, Method: PREINCUBATION): inactive; negative; mutagenic call (Test System: AMES SALMONELLA TYPHIMURIUM, Strain/Indicator: TA102, Metabolic Activation: NONE, Method: PREINCUBATION): inactive; negative; mutagenic call (Test System: AMES SALMONELLA TYPHIMURIUM, Strain/Indicator: TA102, Metabolic Activation: RAT, LIVER, S-9, AROCLOR 1254, Method: PREINCUBATION): inactive; negative
C[C@]12CC[C@H](OC(=O)/C=C/c3cccc(N(CCCl)CCCl)c3)C[C@@H]1CC[C@@H]1[C@@H]2CC[C@]2(C)NC(=O)CC[C@@H]12 | – | – | – | inactive; negative | – | – | – | – | – | inactive; negative | inactive; negative | inactive; negative | inactive; negative | – | – | mutagenic call (Test System: AMES SALMONELLA TYPHIMURIUM, Strain/Indicator: TA1535, Metabolic Activation: RAT, LIVER, S-9, AROCLOR 1254, Method: STANDARD PLATE): inactive; negative; mutagenic call (Test System: AMES SALMONELLA TYPHIMURIUM, Strain/Indicator: TA1537, Metabolic Activation: NONE, Method: STANDARD PLATE): inactive; negative; mutagenic call (Test System: AMES SALMONELLA TYPHIMURIUM, Strain/Indicator: TA1537, Metabolic Activation: RAT, LIVER, S-9, AROCLOR 1254, Method: STANDARD PLATE): inactive; negative
Cc1ccc(N(N)c2ccc(C)cc2)cc1 | – | – | – | – | – | – | – | – | – | – | inactive; negative | active; positive | – | active; positive | active; positive | –
S=C1NCCN1 | – | inactive; negative | inactive; negative | inactive; negative | inactive; negative | inactive; negative | inactive; negative | inactive; negative | – | inactive; negative | inactive; negative | inactive; negative | active; positive | inactive; negative | inactive; negative | mutagenic call (Test System: AMES SALMONELLA TYPHIMURIUM, Strain/Indicator: TA104, Metabolic Activation: NONE, Method: STANDARD PLATE): inactive; negative; mutagenic call (Test System: AMES SALMONELLA TYPHIMURIUM, Strain/Indicator: TA104, Metabolic Activation: RAT, LIVER, S-9, AROCLOR 1254, Method: STANDARD PLATE): inactive; negative; mutagenic call (Test System: AMES SALMONELLA TYPHIMURIUM, Strain/Indicator: TA1535, Metabolic Activation: S-9 MIX, Method: STANDARD PLATE): active; positive; mutagenic call (Test System: AMES SALMONELLA TYPHIMURIUM, Strain/Indicator: TA1537, Metabolic Activation: HAMSTER, LIVER, S-9, AROCLOR 1254 (10%), Method: PREINCUBATION): inactive; negative; mutagenic call (Test System: AMES SALMONELLA TYPHIMURIUM, Strain/Indicator: TA1537, Metabolic Activation: NONE, Method: PREINCUBATION): inactive; negative; mutagenic call (Test System: AMES SALMONELLA TYPHIMURIUM, Strain/Indicator: TA1537, Metabolic Activation: RAT, LIVER, S-9, AROCLOR 1254 (10%), Method: PREINCUBATION): inactive; negative; mutagenic call (Test System: MOUSE LYMPHOMA, Strain/Indicator: L5178Y (TK+/TK-), Metabolic Activation: NONE, Method: SUSPENSION/PLATE): inactive; negative; mutagenic call (Test System: MOUSE LYMPHOMA, Strain/Indicator: L5178Y (TK+/TK-), Metabolic Activation: RAT, LIVER, S-9, AROCLOR 1254, Method: SUSPENSION/PLATE): active; positive
